{"source": "patent US20120029071A1", "about": "“COMPOSITIONS AND METHODS FOR TREATING OR PREVENTING RADIATION INJURY” (THE JOHNS HOPKINS UNIVERSITY, priority 2008, published 2012)", "key": {"[1]": {"test_system": "Nrf2−/− mice", "experiment": "TBI induced mortality in Nrf2-/- mice after CDDO-Me treatment", "format": "in vivo", "conditions": "treated 1 hour post-TBI", "procedure": "(§1) FIG. 2 includes three graphs, which provide proof of concept studies with Nrf2 activator, showing quantitation of TBI induced Mortality in Nrf2−/− mice and Nrf2+/+ mice after CDDO-me (small molecule Nrf2 activator) or vehicle treatment. One hour and 24 hours after TBI mice (n=10/gp) mice were treated with CDDO-Me. Survival was monitored for 30 days.\n(§2) To determine if pharmacological activation of Nrf2 improves survival following TBI, we treated Nrf2+/+ and Nrf2−/− with the small molecule, CDDO-Me, a potent Nrf2 activator 1 hour and 24 hours after TBI."}, "[2]": {"test_system": "hematopoietic stem cells and progenitors cell", "experiment": "TBI induced hematopoietic injury, bone marrow clonogenic assay", "format": "in vivo, mice", "conditions": "bone marrow clonogenic assay after TBI, vs vehicle", "procedure": "FIG. 4 is a graph quantitating TBI induced HP injury in mice after CDDO-me or vehicle treatment as assessed by bone marrow clonogenic assay.\nTo assess the protective effect of CDDO-Me on hematopoietic injury, bone marrow was analyzed in a clonogenic assay."}, "[3]": {"test_system": "mice", "experiment": "TBI induced gastrointestinal (GI) injury: villi morphology and crypt cell proliferation (BrdU)", "format": "in vivo", "conditions": "treatment post 1 h TBI, day 9 post TBI, vs vehicle; for mucosal injury (length of villi): histopathology", "procedure": "FIGS. 3A-3D show TBI induced GI injury in Nrf2+/+ and Nrf2−/− mice after CDDO-me or vehicle treatment. One hour after TBI […] mice (n=10/gp) mice were treated with CDDO-Me. GI injury was assessed by mucosal damage by histopathalogical analysis (FIGS. 3A and 3B) and crypt cell proliferation by BrdU immunohistochemistry staining (FIGS. 3C and 3D).\nTo analyze the GI injury, villi morphology and proliferation of crypt cells were quantified by immunohistochemistry and BrdU labeling on day 9 post TBI."}, "[4]": {"test_system": "Nrf2+/+ mice", "experiment": "TBI induced mortality in Nrf2+/+ mice after CDDO-Me treatment", "format": "in vivo", "conditions": "for mortality: survival monitored for 30 days, vehicle 100% mortality", "procedure": "as §1, §2"}, "[5]": {"test_system": "GCLC, GCLm and NQO1 genes", "experiment": "Expression of Nrf2 regulated antioxidant genes in multiple tissues post TBI by quantitative RT-PCR", "format": "in vivo, mice", "conditions": "small intestine, colon, lung, liver, kidney, salivary gland and other organs", "source_text": "FIG. 5 is a table that quantifies Nrf2 regulated antioxidant defenses in multiple tissues of mice treated with CDDO-Me post TBI."}}, "note": "Entries after “also recorded” stand apart in the source; their conditions may differ.", "data": [{"smiles": "COC(=O)[C@]12CCC(C)(C)C[C@H]1[C@H]1C(=O)C=C3[C@@]4(C)C=C(C#N)C(=O)C(C)(C)[C@@H]4CC[C@@]3(C)[C@]1(C)CC2", "note": "[CDDO-Me]", "values": [{"measurement": "survival following TBI", "setting": "[1]", "value": "failed to improve survival"}, {"measurement": "protection of hematopoietic stem cells and progenitors (granulocyte/macrophage colony forming cells)", "setting": "[2]", "value": "markedly protected hematopoietic stem cells and progenitors cell"}, {"measurement": "crypt cell proliferation (BrdU staining)", "setting": "[3]; BrdU immunohistochemistry", "value": "significantly mitigated loss of crypt cells; also recorded: marked improvement in crypt cell proliferation"}, {"measurement": "mucosal injury (length of villi)", "setting": "[3]", "value": "significantly mitigated reduction in gastrointestinal villi"}, {"measurement": "mucosal injury (length of villi)", "setting": "[3]; listed as CDDO-me", "value": "markedly ameliorated mucosal injury"}, {"measurement": "TBI induced mortality", "setting": "[4]; treated 1 hour and 24 hours after TBI, vs vehicle", "value": "markedly inhibited TBI induced mortality"}, {"measurement": "mortality", "setting": "[4]; treated 1 hour post-TBI", "value": 0, "unit": "%"}, {"measurement": "mortality", "setting": "[4]; treated 24 hours post-TBI", "value": 25, "unit": "%"}, {"measurement": "expression of antioxidant genes (GCLC, GCLm, NQO1)", "setting": "[5]", "value": "markedly upregulated antioxidant genes"}]}]}
